We go through two molecules from paper PMC6093650, “Antidepressive and anxiolytic effects of ostruthin, a TREK-1 channel activator” (PLoS ONE, 2018).

The target of test [1] is T1, TREK-2 channel (Homo sapiens, UniProt P57789).
T1 construct: expressed in transfected cells; host or cells: 293T (transient, calcium-phosphate transfection)
T1 sequence (P57789 1-538): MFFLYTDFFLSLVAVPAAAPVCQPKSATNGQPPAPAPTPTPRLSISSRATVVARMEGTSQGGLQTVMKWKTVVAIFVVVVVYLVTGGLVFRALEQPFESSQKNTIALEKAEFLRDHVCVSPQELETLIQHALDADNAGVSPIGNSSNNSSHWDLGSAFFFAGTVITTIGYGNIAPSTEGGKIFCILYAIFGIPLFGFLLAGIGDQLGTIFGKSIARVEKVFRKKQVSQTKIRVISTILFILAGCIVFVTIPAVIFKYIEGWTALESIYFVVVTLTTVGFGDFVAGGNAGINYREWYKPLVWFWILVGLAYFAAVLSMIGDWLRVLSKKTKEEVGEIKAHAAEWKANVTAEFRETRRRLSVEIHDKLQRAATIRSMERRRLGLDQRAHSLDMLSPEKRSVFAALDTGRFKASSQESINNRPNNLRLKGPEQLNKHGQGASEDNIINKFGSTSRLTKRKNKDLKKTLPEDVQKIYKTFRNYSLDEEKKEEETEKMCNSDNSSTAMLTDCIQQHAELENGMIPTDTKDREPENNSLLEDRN
Also noted: method as in PMID 10880510. As to conditions: 100 μM; cited from earlier work.

In another test the target is T2, TREK-1 channel (Homo sapiens, UniProt O95069).
T2 construct: expressed in transfected cells
T2 sequence (O95069 1-426): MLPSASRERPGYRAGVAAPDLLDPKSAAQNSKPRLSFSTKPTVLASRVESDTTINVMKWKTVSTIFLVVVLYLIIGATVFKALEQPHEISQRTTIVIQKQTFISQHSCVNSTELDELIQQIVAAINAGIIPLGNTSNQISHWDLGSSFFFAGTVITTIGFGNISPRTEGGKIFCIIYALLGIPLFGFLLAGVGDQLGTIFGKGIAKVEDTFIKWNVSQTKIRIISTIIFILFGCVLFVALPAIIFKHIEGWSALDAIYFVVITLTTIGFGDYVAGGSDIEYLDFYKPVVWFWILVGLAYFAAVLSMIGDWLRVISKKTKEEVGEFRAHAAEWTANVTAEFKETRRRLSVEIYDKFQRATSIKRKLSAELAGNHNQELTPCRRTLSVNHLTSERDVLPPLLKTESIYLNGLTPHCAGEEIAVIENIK
As to the kind of experiment: whole-cell patch-clamp of TREK-1 currents in TR-1 cells (293T stably expressing TREK-1). The test is classed as cell-based. As to conditions: bupivacaine 3 mM, after 100 μM ostruthin. An excerpt:
(§1) For recordings of K^+ channel currents, we prepared stable cell lines for TREK-1, TWIK-related acid-sensitive K^+ channel (TASK-1), strongly inwardly rectifying K^+ channel (Kir2.1), and human ether-a-go-go-related gene (HERG-1) channels and transiently expressed other channels in 293T cells using a calcium-phosphate transfection method. For the establishment of the stable lines, we used lentiviral vectors, and the preparation methods for the lentiviral vectors were described in our previous report. TR-1 cells, which stably expressed TREK-1 channel and were grown on a small cover glass (3 × 18 mm), were placed in a recording chamber with an internal volume of 200 μl. Whole-cell currents were recorded in Tyrode solution using an Axopatch 200B amplifier (Axon Instruments, Foster City, CA) at 25°C. […] Perfusion (100 μl/min) was continued to maintain the water level throughout recordings. pH and osmotic pressure of solutions were measured with a pH meter (Horiba, Kyoto, Japan) and a freezing point osmometer (Knauer, Berlin, Germany), respectively.
We previously prepared a lentiviral vector that expressed the TREK-1 channel and using this vector we established a cell line, TR-1, which stably expressed the channel. […] Immediately after whole-cell access, small outward currents were recorded in response to depolarizing step pulses (Fig 1A, 0 min). […]
Background: The patch-clamp technique gives a direct electrical read-out from membranes.

Test [2] deals with T1, TREK-2 channel. The test can be described thus: whole-cell patch-clamp of TREK-2 currents transiently expressed in 293T cells. In kind it is cell-based. The note with it: bupivacaine 3 mM, after ostruthin.
From the text: as §1
TREK-1 channels are known to be activated by low pH and mechanical stretch. […] To test these possibilities, we measured the pH of Tyrode solution before and after addition of 100 μM ostruthin, and observed no significant change (from 7.31 ± 0.17 to 7.33 ± 0.22, p = 0.645, paired t-test, n = 6). […]

For test [3], the system named is mice anxiety-like behavior. The test can be described thus: elevated plus maze. The test is classed as in vivo. The note with it: amlodipine experiment: single compound vs PBS, ostruthin 5 mg/kg or amlodipine 10 mg/kg, n = 6. An excerpt: (§2) Male ICR mice (n = 317 in total) aged 5 weeks and weighing 32 ± 2 g were purchased from Shimizu Laboratory Supplies (Kyoto, Japan). For the social defeat stress test, we used 28 C57BL/6J mice (5 weeks old, Shimizu Laboratory Supplies) and 30 ICR mice (7–8 weeks old, Charles River Labs Japan, Yokohama, Kanagawa, Japan). Mice were maintained for at least 1 week prior to experiments. Animals were kept in groups in plastic cages. They had free access to food and water, and were kept in a 12-h light/dark cycle (08:00–20:00). Experiments were carried out between 10:00 and 18:00 in a quiet and air-conditioned experimental room, in which mice were habituated for at least 30 min before each experiment. Animal experiments were performed in accordance with the guidelines of the Physiological Society of Japan and were approved by the Committees on Animal Experiments at Kansai Medical University and the Kurashiki University of Science and the Arts. Ostruthin was initially dissolved in DMSO at higher concentration (100 mM) and then diluted in phosphate-buffered saline (PBS). The diluted solution was mixed vigorously for more than 10 min before the experiments, and an equal volume of DMSO was added to PBS as a control. PBS and ostruthin were administered intraperitoneally 30 min before mice behavioral tests (0.01 ml/g body weight). Each animal was used only once, except for the wheel running test, which was carried out immediately after elevated plus maze.
The elevated plus maze apparatus consisted of four arms set in a cross pattern from a neutral central square (6 × 6 cm). Two opposite arms were delimited by vertical walls (closed arms, 30 × 15 × 6 cm), whereas the other two arms had unprotected edges (open arms, 30 × 6 cm). The maze was elevated 40 cm above the floor. At the beginning of each 5 min test session, a mouse was placed in the central neutral area, facing one of the open arms. The total number of the entries to open arms and time spent in the open arms were measured. After removal of the animal, the apparatus was cleaned and wiped.

In test [4] the test system is depression-like behavior of mice. As to the kind of experiment: tail suspension test. The test is classed as in vivo. As to conditions: amlodipine experiment: single compound vs PBS, ostruthin 5 mg/kg or amlodipine 10 mg/kg, n = 9 and 13.
From the text: as §2
The tail suspension test was performed in accordance with a method reported previously. The mouse was hung on a hook using adhesive tape placed 2 cm from the extremity of its tail 50 cm above the table. The amount of time spent immobile was recorded for 5 min.

For `CCCCN1CCCCC1C(=O)Nc1c(C)cccc1C` (centres unmarked) [bupivacaine, reference compound], the “sensitivity of TREK-2 channel to bupivacaine” value on TREK-2 channel [1] was “insensitive”. The “inhibition of the ostruthin-increased TREK-1 current” value at TREK-1 channel is given as “inhibited nearly completely”. The “block of TREK-2 current” value on TREK-2 channel [2] is “almost blocked the current”.
Consider `CCOC(=O)C1=C(COCCN)NC(C)=C(C(=O)OC)C1c1ccccc1Cl` (centres unmarked) [amlodipine, reference compound], for which the “number of entries to the open arm” value in test [3] is “non-significantly decreased”. Also, the time spent immobile entry in test [4] is listed as “non-significantly decreased”.
